Test results: patent US9005575B2, “Arg-Gly-Asp-conjugated alpha-melanocyte stimulating hormone hybrid peptide for use in diagnosing and treating melanoma, including metastatic melanoma and methods related to same” (STC.UNM, priority 2009, dated 2015)
Where “and” joins values, the source holds several entries; their conditions need not be identical. Equal entries are not always repeated. Positions of bridges follow the written chain, without caps; N, C: chain ends. Non-standard residues stand in square brackets, D forms with d. Residues, ends and D or L forms follow the SMILES beside them.

Tests used:
[1] = Urinary metabolites by HPLC; type: in vivo, C57 mouse; conditions: urine, 2 h post-injection, RP-HPLC
Experimental: (§1) Urinary metabolites of ^99mTc-RGD-Lys-(Arg^11)CCMSH were determined by injecting 3.7 MBq of ^9″Tc-RGD-Lys-(Arg^11)CCMSH into a B16/F1 melanoma-bearing C57 mouse through the tail vein. At 2 h after dose administration, the mouse was euthanized and the urine was collected. The radioactive metabolites in the urine were analyzed by injecting aliquots of urine into HPLC. A 20-minute gradient of 16-26% acetonitrile/20 mM HCl was used for the urine analysis.
as §1, with “^99mTc-RGD-Arg-(Arg^11)CCMSH” for “^99mTc-RGD-Lys-(Arg^11)CCMSH”, “^99mTc-RGD-Arg-(Arg^11)CCMSH” for “^9″Tc-RGD-Lys-(Arg^11)CCMSH”

[2] = tested on: B16/F1 murine melanoma cells; test: Cellular internalization and efflux; type: cell-based; design: concentration or dose not given beside the values; conditions: for Activity internalized in the B16/F1 cells: 25° C.; for Cellular efflux: activity remained inside the cells: 2 h after incubating cells in culture medium
Experimental: Cellular internalization and efflux of ^99mTc-RGD-Lys-(Arg^11)CCMSH was evaluated in B16/F1 cells as previously described by Miao et al (27). After being washed once with binding media, B16/F1 cells in 24-well cell culture plates were incubated at 25° C. for 20, 40, 60, 90 and 120 min (n=4) in the presence of approximately 200,000 cpm of HPLC purified ^99mTc-RGD-Lys-(Arg^11)CCMSH. After incubation, the reaction media were aspirated and the cells were rinsed twice with 0.5 ml of ice-cold pH 7.4, 0.2% BSA/0.01 M PBS. Cellular internalization of ^99mTc-RGD-Lys-(Arg^11)CCMSH was assessed by washing the cells with acidic buffer [40 mM sodium acetate (pH 4.5) containing 0.9% NaCl and 0.2% BSA] to remove the membrane-bound radioactivity. The remaining internalized radioactivity was obtained by lysing the cells with 0.5 ml of 1 N NaOH for 5 min. Membrane-bound and internalized ^99mTc activities were counted in a gamma counter. Cellular efflux of ^99mTc-RGD-Lys-(Arg^11)CCMSH was determined by incubating B16/F1 cells with ^99mTc-RGD-Lys-(Arg^11)CCMSH for 2 h at 25° C., removing non-specific-bound radioactivity with 2×0.5 ml of ice-cold pH 7.4, 0.2% BSA/0.01 M PBS rinse, and monitoring radioactivity released into cell culture media. At time points of […], the radioactivities in media, on cell surface and in cells were separately collected and counted in a gamma counter.
Cellular internalization and efflux of ^99mTc-RGD-Arg-(Arg^11)CCMSH was evaluated in B16/F1 cells as previously described by Yang et al (17). After being washed once with binding medium, B16/F1 cells in 24-well cell culture plates were incubated at 25° C. for 20, 40, 60, 90 and 120 min (n=3) in the presence of approximately 200,000 cpm of HPLC purified 99″Tc-RGD-Arg-(Arg^11)CCMSH. After incubation, the reaction medium was aspirated and the cells were rinsed twice with 0.5 mL of ice-cold pH 7.4, 0.2% BSA/0.01 M PBS. Cellular internalization of ^99mTc-RGD-Arg-(Arg^11)CCMSH was assessed by washing the cells with acidic buffer [40 mM sodium acetate (pH 4.5) containing 0.9% NaCl and 0.2% BSA] to remove the membrane-bound radioactivity. The remaining internalized radioactivity was obtained by lysing the cells with 0.5 mL of 1 N NaOH for 5 min. Membrane-bound and internalized ^99mTc activities were counted in a gamma counter. Cellular efflux of ^99mTc-RGD-Arg-(Arg^11)CCMSH was determined by incubating B16/F1 cells with ^99mTc-RGD-Arg-(Arg^11)CCMSH for 2 h at 25° C., removing non-specific-bound radioactivity with 2×0.5 mL of ice-cold pH 7.4, 0.2% BSA/0.01 M PBS rinse, and monitoring radioactivity released into cell culture medium. At time points of 20, 40, 60, 90 and 120 min, the radioactivities on cell surface and in cells were separately collected and counted in a gamma counter.

[3] = tested on: B16/F1 murine melanoma cells; test: Specificity of cellular uptake (peptide blockade); type: cell-based; conditions: rather than αvβ3 integrin-mediated
Experimental: The specificity of cell binding was determined by incubating ^99mTc-RGD-Lys-(Arg^11)CCMSH with or without non-radioactive peptides. After being washed once with binding media, B16/F1 cells in 24-well cell culture plates were incubated with approximately 200,000 cpm of HPLC purified ^99mTc-RGD-Lys-(Arg^11)CCMSH at 25° C. for 120 min (n=4) in the presence of 0.1 μM of RGD-Lys-(Arg^11)CCMSH, NDP-MSH, (Arg^11)CCMSH or RGD in 0.5 ml of binding media, respectively. The reaction media were aspirated after the incubation. The cells were rinsed twice with 0.5 ml of ice-cold pH 7.4, 0.2% BSA/0.01 M PBS and lysed in 0.5 ml of 1 N NaOH for 5 min. The activities associated with cells were measured in a gamma counter. Statistical analysis was performed using the Student's t-test for unpaired data.
The specificity of cellular uptake was determined by incubating ^99mTc-RGD-Arg-(Arg^11)CCMSH with or without non-radioactive peptides. After being washed once with binding medium, B16/F1 cells in 24-well cell culture plates were incubated with approximately 200,000 cpm of HPLC purified ^99mTc-RGD-Arg-(Arg^11)CCMSH at 25° C. for 120 min (n=3) in the presence of 0.1 μM of RGD-Arg-(Arg^11)CCMSH, (Arg^11)CCMSH, RGD or no peptide blockade in 0.5 mL of binding medium, respectively. The reaction medium was aspirated after the incubation. The cells were rinsed twice with 0.5 mL of ice-cold pH 7.4, 0.2% BSA/0.01 M PBS and lysed in 0.5 mL of 1 N NaOH for 5 min. The activities associated with cells were measured in a gamma counter.

| SMILES | Urinary radioactivity: remained intact [1] | Urinary radioactivity: transformed to more lipophilic metabolite(s) [1] [%] | Activity internalized in the B16/F1 cells ([2]; 20 min post incubation) [%] | Cellular efflux: activity remained inside the cells [2] | Activity internalized in the B16/F1 cells ([2]; 2 h incubation) [%] | Mechanism of cellular uptake [3] |
| --- | --- | --- | --- | --- | --- | --- |
| CC(C)[C@H](NC(=O)[C@@H]1CCCN1C(=O)[C@H](CCCNC(=N)N)NC(=O)[C@H](CS)NC(=O)[C@H](Cc1c[nH]c2ccccc12)NC(=O)[C@H](CCCNC(=N)N)NC(=O)[C@@H](Cc1ccccc1)NC(=O)[C@H](Cc1c[nH]cn1)NC(=O)[C@H](CCC(=O)O)NC(=O)[C@H](CS)NC(=O)[C@H](CS)NC(=O)[C@H](CCCNC(=N)N)NC(=O)[C@@H]1CC(=O)N[C@@H](CCCNC(=N)N)C(=O)NCC(=O)N[C@@H](CC(=O)O)C(=O)N[C@H](Cc2ccc(O)cc2)C(=O)N1)C(N)=O [^99mTc-RGD-Arg-(Arg^11)CCMSH, metal not drawn] (RGD[dY]DRCCEH[dF]RWCRPV-NH2; lactam N-5) | Approximately 73% | 27 | 62.35±4.08 | 58.99±2.03% | 81.36±0.96 | MC1 receptor-mediated |
| CC(C)[C@H](NC(=O)[C@@H]1CCCN1C(=O)[C@H](CCCNC(=N)N)NC(=O)[C@H](CS)NC(=O)[C@H](Cc1c[nH]c2ccccc12)NC(=O)[C@H](CCCNC(=N)N)NC(=O)[C@@H](Cc1ccccc1)NC(=O)[C@H](Cc1c[nH]cn1)NC(=O)[C@H](CCC(=O)O)NC(=O)[C@H](CS)NC(=O)[C@H](CS)NC(=O)[C@H](CCCCN)NC(=O)[C@@H]1CC(=O)N[C@@H](CCCNC(=N)N)C(=O)NCC(=O)N[C@@H](CC(=O)O)C(=O)N[C@H](Cc2ccc(O)cc2)C(=O)N1)C(N)=O [^99mTc-RGD-Lys-(Arg^11)CCMSH, metal not drawn] (RGD[dY]DKCCEH[dF]RWCRPV-NH2; lactam N-5) | Approximately 68% | 32 | – | 68.57±3.77% and ~69% | 85.93±1.22 | MC1 receptor-mediated |
